In patent publication US20250064945A1 (Arvinas Operations, Inc., priority 2021, published 2025):
Counter-ions that a name gives are not always drawn.

Target: T1, BRM (Homo sapiens, UniProt P51531)
T1 construct: In-Cell Western Screen of BRM Degradation in SW1573 Cells; endogenous in cells; host or cells: SW1573 cells
Experiment: Western blot / In-Cell Western screen of BRM degradation in SW1573 cells
Type: cell-based
Details: overnight (18-20 hours) treatment; for Dmax: read-out: Dmax (%) (% degraded)
Method in brief: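 SW1573 cells treated overnight (18-20 hours) with compound at 0.1% final DMSO. BRM measured either by Western blot of RIPA lysates with alpha-tubulin control and chemiluminescent detection, or by In-Cell Western on fixed, permeabilized cells with LI-COR dual-channel read against alpha-tubulin; Dmax and DC50 derived.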

T1 sequence (P51531 whole entry): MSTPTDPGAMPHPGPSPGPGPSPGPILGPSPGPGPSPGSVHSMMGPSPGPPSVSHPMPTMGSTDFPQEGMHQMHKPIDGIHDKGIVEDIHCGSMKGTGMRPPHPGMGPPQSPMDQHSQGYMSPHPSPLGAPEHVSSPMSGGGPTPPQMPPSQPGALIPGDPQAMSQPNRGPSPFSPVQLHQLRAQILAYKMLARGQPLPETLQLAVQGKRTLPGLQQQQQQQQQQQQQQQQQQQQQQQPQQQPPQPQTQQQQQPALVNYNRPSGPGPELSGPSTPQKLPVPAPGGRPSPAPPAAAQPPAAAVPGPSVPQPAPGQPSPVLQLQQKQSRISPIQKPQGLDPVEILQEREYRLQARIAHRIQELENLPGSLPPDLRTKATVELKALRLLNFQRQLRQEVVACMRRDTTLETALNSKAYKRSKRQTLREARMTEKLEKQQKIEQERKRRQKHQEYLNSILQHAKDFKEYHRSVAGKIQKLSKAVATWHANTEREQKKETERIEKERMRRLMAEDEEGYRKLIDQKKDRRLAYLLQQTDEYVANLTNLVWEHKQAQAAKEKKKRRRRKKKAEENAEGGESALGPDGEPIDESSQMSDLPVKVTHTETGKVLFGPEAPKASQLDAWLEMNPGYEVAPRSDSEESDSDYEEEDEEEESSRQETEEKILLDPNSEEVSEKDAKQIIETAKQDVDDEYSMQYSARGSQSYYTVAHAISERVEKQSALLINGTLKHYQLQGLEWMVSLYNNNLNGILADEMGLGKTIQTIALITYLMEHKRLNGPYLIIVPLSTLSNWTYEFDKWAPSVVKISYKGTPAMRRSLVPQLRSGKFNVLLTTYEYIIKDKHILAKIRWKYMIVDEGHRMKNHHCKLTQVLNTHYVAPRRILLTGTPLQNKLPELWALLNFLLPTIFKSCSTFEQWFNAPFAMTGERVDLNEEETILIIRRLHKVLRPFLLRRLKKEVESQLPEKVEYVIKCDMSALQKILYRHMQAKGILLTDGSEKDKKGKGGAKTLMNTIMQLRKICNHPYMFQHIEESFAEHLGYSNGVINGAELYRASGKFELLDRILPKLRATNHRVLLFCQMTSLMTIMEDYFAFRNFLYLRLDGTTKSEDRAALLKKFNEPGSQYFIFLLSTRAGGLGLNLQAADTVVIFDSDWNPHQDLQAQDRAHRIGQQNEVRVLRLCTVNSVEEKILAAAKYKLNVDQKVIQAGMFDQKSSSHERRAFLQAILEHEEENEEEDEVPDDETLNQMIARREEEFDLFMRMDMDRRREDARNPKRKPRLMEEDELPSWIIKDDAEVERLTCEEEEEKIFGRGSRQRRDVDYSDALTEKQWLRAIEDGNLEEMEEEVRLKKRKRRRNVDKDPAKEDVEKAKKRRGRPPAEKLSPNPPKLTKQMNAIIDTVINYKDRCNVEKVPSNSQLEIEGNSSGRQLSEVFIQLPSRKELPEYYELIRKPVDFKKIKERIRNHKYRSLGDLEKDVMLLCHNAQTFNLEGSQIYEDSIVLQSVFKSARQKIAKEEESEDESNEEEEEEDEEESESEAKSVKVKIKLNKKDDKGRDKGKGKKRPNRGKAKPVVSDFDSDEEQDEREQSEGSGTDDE

| SMILES | DC50 | Dmax |
| --- | --- | --- |
| Cc1ncsc1-c1ccc([C@H](C)NC(=O)[C@@H]2C[C@@H](O)CN2C(=O)[C@@H](c2cc(N3CCC(CN4CCC(O[C@H]5C[C@H](n6ccnc6CN6C7CCC6CN(c6cc(-c8ccccc8O)nnc6N)C7)C5)CC4)CC3)no2)C(C)C)cc1 [Compound 8, (2S,4R)-4-hydroxy-N-[(1S)-1-[4-(4-methyl-1,3-thiazol-5-yl)phenyl]ethyl]-1-[(2R)-3-methyl-2-{3-[4-({4-[(1r,3r)-3-[2-({3-[3-amino-6-(2-hydroxyphenyl)pyridazin-4-yl]-3,8-diazabicyclo[3.2.1]octan-8-yl}methyl)-1H-imidazol-1-yl]cyclobutoxy]piperidin-1-yl}methyl)piperidin-1-yl]-1,2-oxazol-5-yl}butanoyl]pyrrolidine-2-carboxamide] | < 2.5 nM | > 75% |
| Cc1ncsc1-c1ccc([C@H](C)NC(=O)[C@@H]2C[C@@H](O)CN2C(=O)[C@@H](c2cc(N3CCC(CN4CCC(O[C@H]5C[C@H](Oc6cc(N7C[C@@H]8CN(c9cc(-c%10ccccc%10O)nnc9N)C[C@@H]8C7)ccn6)C5)CC4)CC3)no2)C(C)C)cc1 [Compound 7, (2S,4R)-4-hydroxy-N-[(1S)-1-[4-(4-methyl-1,3-thiazol-5-yl)phenyl]ethyl]-1-[(2R)-3-methyl-2-{3-[4-({4-[(1r,3r)-3-({4-[(3aR,6aS)-5-[3-amino-6-(2-hydroxyphenyl)pyridazin-4-yl]-octahydropyrrolo[3,4-c]pyrrol-2-yl]pyridin-2-yl}oxy)cyclobutoxy]piperidin-1-yl}methyl)piperidin-1-yl]-1,2-oxazol-5-yl}butanoyl]pyrrolidine-2-carboxamide] | < 2.5 nM | > 75% |
| CC(C)[C@@H](C(=O)N1C[C@H](O)C[C@H]1C(=O)N[C@@H](C)c1ccc(C#N)cc1)c1cc(OCCN2CCC(O[C@H]3C[C@@H](Oc4cc(N5CCN(c6cc(-c7ccccc7O)nnc6N)CC56COC6)ccn4)C3)CC2)no1 [Compound 24, (2S,4R)-N-[(1S)-1-(4-cyanophenyl)ethyl]-4-hydroxy-1-[(2R)-3-methyl-2-[3-(2-{4-[(1r,3r)-3-[(4-{8-[3-amino-6-(2-hydroxyphenyl)pyridazin-4-yl]-2-oxa-5,8-diazaspiro[3.5]nonan-5-yl}pyridin-2-yl)oxy]cyclobutoxy]piperidin-1-yl}ethoxy)-1,2-oxazol-5-yl]butanoyl]pyrrolidine-2-carboxamide] | < 2.5 nM | > 75% |
| CC(C)[C@@H](C(=O)N1C[C@H](O)C[C@H]1C(=O)N[C@@H](C)c1ccc(C#N)cc1)c1cc(OCCN2CCN(CCOc3cc(N4CCN(c5cc(-c6ccccc6O)nnc5N)CC45COC5)ccn3)CC2)no1 [Compound 19, (2S,4R)-1-[(2R)-2-{3-[2-(4-{2-[(4-{8-[3-amino-6-(2-hydroxyphenyl)pyridazin-4-yl]-2-oxa-5,8-diazaspiro[3.5]nonan-5-yl}pyridin-2-yl)oxy]ethyl}piperazin-1-yl)ethoxy]-1,2-oxazol-5-yl}-3-methylbutanoyl]-N-[(1S)-1-(4-cyanophenyl)ethyl]-4-hydroxypyrrolidine-2-carboxamide] | 2.5 to 10 nM | > 75% |
| CC(C)[C@@H](C(=O)N1C[C@H](O)C[C@H]1C(=O)N[C@@H](C)c1ccc(-c2c(F)cnn2C)cc1)c1cc(N2CCC(CN3CCC(O[C@H]4C[C@H](C#Cc5cn6cc(-c7ccccc7O)nc6nc5N)C4)CC3)CC2)no1 [Compound 39, (2S,4R)-N-[(1S)-1-[4-(4-fluoro-1-methyl-1H-pyrazol-5-yl)phenyl]ethyl]-4-hydroxy-1-[(2R)-3-methyl-2-{3-[4-({4-[(1r,3r)-3-{2-[7-amino-2-(2-hydroxyphenyl)imidazo[1,2-a]pyrimidin-6-yl]ethynyl}cyclobutoxy]piperidin-1-yl}methyl)piperidin-1-yl]-1,2-oxazol-5-yl}butanoyl]pyrrolidine-2-carboxamide] | < 2.5 nM | > 75% |
| CC(C)[C@@H](C(=O)N1C[C@H](O)C[C@H]1C(=O)N[C@@H](C)c1ccc(-c2ccnn2C)cc1)c1cc(N2CCC(CN3CCC(O[C@H]4C[C@H](Cn5cc(-c6cn7cc(-c8ccccc8O)nc7nc6N)cn5)C4)CC3)CC2)no1 [Compound 42, (2S,4R)-4-hydroxy-N-[(1S)-1-[4-(1-methyl-1H-pyrazol-5-yl)phenyl]ethyl]-1-[(2R)-3-methyl-2-{3-[4-({4-[(1r,3r)-3-({4-[7-amino-2-(2-hydroxyphenyl)imidazo[1,2-a]pyrimidin-6-yl]-1H-pyrazol-1-yl}methyl)cyclobutoxy]piperidin-1-yl}methyl)piperidin-1-yl]-1,2-oxazol-5-yl}butanoyl]pyrrolidine-2-carboxamide] | < 2.5 nM | > 75% |
| Cc1ncsc1-c1ccc([C@H](C)NC(=O)[C@@H]2C[C@@H](O)CN2C(=O)[C@@H](c2cc(N3CCC(CN4CCC(OCCn5cnc(-c6cn7cc(-c8ccccc8O)nc7nc6N)c5)CC4)CC3)no2)C(C)C)cc1 [Compound 38, (2S,4R)-1-[(2R)-2-[3-(4-{[4-(2-{4-[7-amino-2-(2-hydroxyphenyl)imidazo[1,2-a]pyrimidin-6-yl]-1H-imidazol-1-yl}ethoxy)piperidin-1-yl]methyl}piperidin-1-yl)-1,2-oxazol-5-yl]-3-methylbutanoyl]-4-hydroxy-N-[(1S)-1-[4-(4-methyl-1,3-thiazol-5-yl)phenyl]ethyl]pyrrolidine-2-carboxamide] | 2.5 to 10 nM | > 75% |
| Cc1ncsc1-c1ccc([C@H](C)NC(=O)[C@@H]2C[C@@H](O)CN2C(=O)[C@@H](c2cc(N3CCC(CN4CCC(O[C@H]5C[C@H](N6CCN(C[C@@H]7[C@H]8CN(c9cc(-c%10ccccc%10O)nnc9N)C[C@@H]78)CC6)C5)CC4)CC3)no2)C(C)C)cc1 [Compound 9, (2S,4R)-4-hydroxy-N-[(1S)-1-[4-(4-methyl-1,3-thiazol-5-yl)phenyl]ethyl]-1-[(2R)-3-methyl-2-{3-[4-({4-[(1r,3r)-3-(4-{[(1R,5S,6S)-3-[3-amino-6-(2-hydroxyphenyl)pyridazin-4-yl]-3-azabicyclo[3.1.0]hexan-6-yl]methyl}piperazin-1-yl)cyclobutoxy]piperidin-1-yl}methyl)piperidin-1-yl]-1,2-oxazol-5-yl}butanoyl]pyrrolidine-2-carboxamide] | < 2.5 nM | > 75% |
| Cc1ncsc1-c1ccc([C@H](C)NC(=O)[C@@H]2C[C@@H](O)CN2C(=O)[C@@H](c2cc(N3CCC(O[C@H]4C[C@H](OCC#Cc5cn6cc(-c7ccccc7O)nc6nc5N)C4)CC3)no2)C(C)C)cc1 [Compound 35, formate] | 2.5 to 10 nM | > 75% |
| Cc1ncsc1-c1ccc([C@H](C)NC(=O)[C@@H]2C[C@@H](O)CN2C(=O)[C@H](c2cc(OCCCC#Cc3cn4cc(-c5ccccc5O)nc4nc3N)no2)C(C)C)cc1 [Compound 30, (2S,4R)-1-[(2S)-2-[3-({5-[7-amino-2-(2-hydroxyphenyl)imidazo[1,2-a]pyrimidin-6-yl]pent-4-yn-1-yl}oxy)-1,2-oxazol-5-yl]-3-methylbutanoyl]-4-hydroxy-N-[(1S)-1-[4-(4-methyl-1,3-thiazol-5-yl)phenyl]ethyl]pyrrolidine-2-carboxamide] | ≥ 30 nM | – |
